Here are results for 5 molecules from patent publication US20200000087A1, “COMPOSITIONS FOR APPLICATION TO AERIAL PARTS OF PLANTS” (EXOSECT LIMITED, priority 2017, published 2020).

Series [1] concerns German cockroach, Blattella germanica. Conditions: cited from earlier work.
Series [2] in a line: Loading of acetamiprid dry powder seed treatment on seeds. The class given is physicochemical.
In series [3] the test system is Triticum aestivum (Spring wheat) variety KWS Alderon. Nature of the series: Translaminar (herbicidal) activity of Quizalofop-p-ethyl formulations sprayed on wheat, EPPO PP1/135 assessment. In kind it is in vivo. Particulars: control of volunteer wheat; compared with conventional formulation.
Series [4] can be described thus: Azoxystrobin retention on maize seed after Heubach mechanical stress (GC-ECD). In kind it is physicochemical. As for the experimental part: • Test item type and 1. Polyethylene Entostat (W3800) containing 499 mg/g contents: Azoxystrobin fungicide. • 2. Carnauba Entostat (W3738) containing 435 mg/g Azoxystrobin fungicide. • Test item rate: When using a commercial standard biological efficacy in maize is observed at […] seed. W3800 and W3738 were applied at […] of that commercial standard a.s. rate Table 1. • Application interval: Single application at the start of the study • Supplier: Entostat, Exosect, UK • Azoxystrobin, Albaugh, USA. • Storage: Pesticide cabinet in formulation laboratory, Exosect
The independent factors were, dry powder seed treatment formulation type (W3800 and W3738) and Azoxystrobin application rate (Low, Medium, and High). Residues of the active ingredient Azoxystrobin recovered from maize before and after mechanical stress were quantified. Each treatment will be replicated ten times. Work involving the Heubach Dustmeter was conducted according to know standard procedures.
Seeds were equilibrated in incubator 308 at 20° C.±2° C. and at 50%±10% relative humidity for at least 48 hours prior to testing.
Treatments were weighed into sterile 1 L Duran bottles along with 500 g of maize seeds. The treatments were homogenized for 30 seconds by gently agitating using the Stuart Rotator with MIX2040 attachment. 50 maize seeds were removed from each batch, weighed, and placed in a bioassay jar for pre mechanical stress quality control analysis. One 100 g sample were removed from each batch.
The 100 g sample was mechanically stressed in the Heubach Dustmeter (Heubach GMbh, Heubachstrasse7, 38685 Langelsheim), following the procedures outlined in TDRF311. Work involving the Heubach Dustmeter was conducted between 23° C. and 29° C. and 30% and 70% relative humidity in Bioassay Room 2. After the cycle, treated seeds were removed from the rotating drum. 50 maize seeds were removed from each batch, weighed, and placed in a bioassay jar for post mechanical stress quality control analysis.
Azoxystrobin present on the seed samples taken before and after Heubach mechanical stress were analysed using gas chromatography with electron capture detector (GC-ECD). From these values the percentage change of Azoxystrobin a.s. retained by the seeds mechanical stress was calculated.
Percentage Azoxystrobin retained on maize seed after mechanical stress was modelled using R (version 3.3.1). After testing for normality using a Shapiro-Wilk normality test, ANOVA was used to analyse the data linear model. Percentage Azoxystrobin retention was modelled as a function of the factors formulations type (W3800 and W3738), Azoxystrobin application rate (0.006259, 0.06259 and 0.6259 g a.s./kg seed) and interactions between the factors. Formulation W3800 at its lowest application (0.006259 g a.s./kg seed) was used as the control.

Series [5] has as its system Zymoseptoria tritici (formerly Septoria tritici). Nature of the series: Translaminar activity of Azoxystrobin formulated in Entostat against Z. tritici on wheat. The class given is in vivo. Particulars: control of Zymoseptoria tritici; compared with conventional formulation. The text has this: • Test item type and Entostat SC contains in 300 g/L Entostat (Polyethylene contents: wax variant), with the wax component formulated with 81.8 g/L Azoxystrobin (8.18% w/w Azoxystrobin in SC) • Test item rate: The Entostat formulation was applied at a rate 2.68 L/ha delivering 219 g a.i/ha (which delivers Azoxystar's maximum label amount of active ingredient). • Reference item type Azoxystar—SC Strobilurin fungicide containing […] and contents: of Azoxystrobin (22.9 w/w Azoxystrobin in SC). • Reference item rate: Azoxystar was applied at the maximum recommended label rate (0.88 L/ha delivering 219 g a.i/ha) • Application interval: Once at wheat growth stage 12
200 square plastic pots (7×7×8 cm) were filled with J. Arthur Bower No. 1 seedling compost and drenched with tap water. Into each pot six spring wheat (T. aestivum cv. KWS Kielder) seeds were double sown. The pots were placed within four Secret Jardin 120 growth tents in a fully randomised block design of 40 blocks (5 pots per block). All plants were grown under a light, temperature and relative humidity (RH) regime of 16:8 light/dark, 20° C./17° C. and 80% RH. Pots were watered via capillary matting with tap water when required. No additional nutrients were supplied throughout the study. Fourteen days after sowing the six plants in each pot were reduced to three of uniform size. […]

For series [6] the following is noted: cited from earlier work.

Like-named read-outs stand apart in the source and are kept apart here.

As to `CC1(C)[C@H](C(=O)O[C@H](C#N)c2cccc(Oc3ccccc3)c2)[C@@H]1/C=C(\Cl)C(F)(F)F` (racemic) [lambda-cyhalothrin], the knock down period in series [1] (Emulsifiable Concentrate (EC)) is 10.33 min; in series [1] (microencapsulated formulation), 17.16 min.
Turning to `C/C(=N\C#N)N(C)Cc1ccc(Cl)nc1` [acetamiprid], the “relative percentage loading on seeds” value in series [2] (after 10 fold decrease in powder application) was determined as 80%; in series [2] (before 10 fold decrease in powder application), 52%.
Consider `CCOC(=O)[C@@H](C)Oc1ccc(Oc2cnc3cc(Cl)ccc3n2)cc1` [Quizalofop-p-ethyl, ethyl (2R)-2-[4-(6-chloroquinoxalin-2-yl)oxyphenoxy]propanoate], for which the “effectiveness of Entostat matrix encapsulated formulation as foliar spray” value in series [3] is on record as “as effective as a conventional Suspension Concentrate (SC) formulation”.
With `CO/C=C(/C(=O)OC)c1ccccc1Oc1cc(Oc2ccccc2C#N)ncn1` [Azoxystrobin, Methyl (2E)-2-(2-{[6-(2-cyanophenoxy)pyrimidin-4-yl]oxy}phenyl)-3-methoxyacrylate], the “less Azoxystrobin retained compared to the lowest application rate” value turned out to be 21% in series [4] (high application rate (0.6259 g a.s./Kg)) and 7% in series [4] (medium application rate (0.06259 g a.s./Kg)). In addition, the “Azoxystrobin retained of original application” value in series [4] (high application rate (0.6259 g a.s./Kg), across formulations) came to 41%; in series [4] (lowest application rate (0.006259 g a.s./Kg), across formulations W3800 and W3738) it was 62%; in series [4] (medium application rate (0.06259 g a.s./Kg), across formulations) it was 55%. In addition, the “dose of Azoxystrobin which remains on the surface of the maize” value in series [4] (medium dose, after mechanical stress) stood at 0.0346 mg·s/kg. Moreover, the “effectiveness of Entostat matrix encapsulated formulation as foliar spray” value in series [5] is on record as “as effective as a conventional Suspension Concentrate (SC) formulation”.
In the case of `CCOP(=S)(OCC)Oc1nc(Cl)c(Cl)cc1Cl` [chlorpyrifos], the “time to release 50% of the insecticide” value in series [6] (encapsulated formulation, sodium alginate and starch microspheres) is reported as 5 days. In addition, the “time to release 50% of chlorpyrifos” value in series [6] (free chlorpyrifos) is 1 days.
